Structures are written as SMILES. pIC50: −log10 of the molar value. Where a name gives a salt, the structure may show the parent alone.

This assay addresses T1, CRBN (Homo sapiens, UniProt Q96SW2).
T1 construct: expressed in transfected cells; host or cells: HEK293T
In words: Competition Assay: MAPPIT-like, competition with trimethoprim-lenalidomide hybrid ligand for binding to CRBN in HEK293T cells. Format: cell-based. The note with it: protocol and reagents of Example 1; read-out: IC50 Competition. From the text:
A bait protein (protein A) is expressed as a fusion protein in which it is genetically fused to an engineered intracellular receptor domain of the leptin receptor, which is itself fused to the extracellular domain of the erythropoietin (Epo) receptor. Binding of Epo ligand to the EpoR component results in activation of receptor-associated intracellular JAK2. However, activated JAK2 cannot activate the leptin receptor to trigger STAT3 binding and its phosphorylation because its tyrosine residues, normally phosphorylated by activated JAK2, have been mutated. Reconstitution of a JAK2 phosphorylatable STAT3 docking site is instead created through interaction of a protein B with protein A, whereby protein B is fused to a cytoplasmic domain of the gp130 receptor (which now harbors appropriate tyrosine resides recognized by the activated JAK2 kinase). Thus, physical interaction of protein A with protein B reconstitutes and Epo triggers JAK2-STAT3 signaling pathway activation. Activation of STAT3 can be monitored by introduction of a STAT3-responsive reporter gene, including a luciferase-encoding gene or a gene encoding a fluorescent marker such as GFP or some other type of fluorescent protein (EGF etc.). In this manner, the MAPPIT assay provides a versatile assay to assess such recombinant protein-protein interactions, or compound- or hybrid ligand-induced protein-protein interactions, in intact cells.
Formation of the complex results in activation of a STAT-responsive luciferase reporter gene. That signal is set to 100% luciferase activity. In a separate sample set up, cells are prepared in the same manner but, in addition, co-incubated with a test compound whose interaction with CRBN is investigated. […] Increasing concentrations of test compound are assessed to determine CRBN binding efficiency as determined in this type of ligand competition experiment in living cells. Specificity of signal inhibition is assessed by a parallel experimental set up in which test compound effect is assessed for inhibition of signal generated by a control gp130 fusion protein (CTRL) that directly binds to the DHFR-fusion protein in the absence of hybrid ligand (i.e. a direct interaction of the proteins).
In more detail, HEK293T cells are cultured in Dulbecco's modified Eagle's medium supplemented with 10% fetal calf serum, incubated at 37° C., 8% CO2. […] Data points represent the average luciferase activity of triplicate samples derived from cells treated with leptin+test compound for the REM2 control (CTRL) or cells treated with leptin+hybrid ligand+test compound (CRBN) relative to leptin (CTRL) or leptin+hybrid ligand (CRBN) only treated samples (the signals obtained in absence of added test compound for both cases is set at 100% of luciferase activity on y-axis). Error bars represent standard deviations. Curves are fit using 4-parameter nonlinear regression in […] PRISM software
In general, pIC50 refers to the IC50 on a negative log10 scale, so that one unit is a factor of ten. With `COc1ccc(Br)c2c1C(=O)N(C1CCC(=O)NC1=O)C2` (centres unmarked) [Compound C74668, 3-(4-bromo-7-methoxy-1-oxo-isoindolin-2-yl)piperidine-2,6-dione], the pIC50 is 8.72.

Take `Cc1cccc2c1S(=O)(=O)N(C1CCC(=O)NC1=O)C2=O` (centres unmarked) [Compound C75688, 3-(7-methyl-1,1,3-trioxo-1,2-benzothiazol-2-yl)piperidine-2,6-dione]: the pIC50 was 4.83. As for `NC1Cc2ccccc2C1=O` (centres unmarked) [Compound C75987, 2-aminoindan-1-one; hydrochloride], the figure is 4.95.

On to `O=C1CCC(N2Cc3cc(Nc4ncnc5sccc45)ccc3C2=O)C(=O)N1` (centres unmarked) [Compound C80370, 3-[1-oxo-5-(thieno[2,3-d]pyrimidin-4-ylamino)isoindolin-2-yl]piperidine-2,6-dione], for which the pIC50 was 7.96. The result for `Cn1ncc2c(Nc3ccc4c(c3)CN(C3CCC(=O)NC3=O)C4=O)ncnc21` (centres unmarked) [Compound C80374, 3-[5-[(1-methylpyrazolo[3,4-d]pyrimidin-4-yl)amino]-1-oxo-isoindolin-2-yl]piperidine-2,6-dione] reads 4.78; that for `Nc1nccc(Nc2ccc3c(c2)CN(C2CCC(=O)NC2=O)C3=O)n1` (centres unmarked) [Compound C80375, 3-[5-[(2-aminopyrimidin-4-yl)amino]-1-oxo-isoindolin-2-yl]piperidine-2,6-dione], 5.69; that for `Nc1nc(Nc2ccc3c(c2)CN(C2CCC(=O)NC2=O)C3=O)nc2sccc12` (centres unmarked) [Compound C80379, 3-[5-[(4-aminothieno[2,3-d]pyrimidin-2-yl)amino]-1-oxo-isoindolin-2-yl]piperidine-2,6-dione], 6.01. As to `Cn1ncc2c(Nc3ccc4c(c3)C(=O)N(C3CCC(=O)NC3=O)C4)ncnc21` (centres unmarked) [Compound C80383, 3-[6-[(1-methylpyrazolo[3,4-d]pyrimidin-4-yl)amino]-1-oxo-isoindolin-2-yl]piperidine-2,6-dione], the pIC50 was 6.83.

On to `Cc1cc(Nc2ccc3c(c2)C(=O)N(C2CCC(=O)NC2=O)C3)ncn1` (centres unmarked) [Compound C80384, 3-[6-[(6-methylpyrimidin-4-yl)amino]-1-oxo-isoindolin-2-yl]piperidine-2,6-dione], for which the pIC50 was 6.75. As for `O=C1CCC(N2Cc3ccc(Nc4cnc5ccccc5n4)cc3C2=O)C(=O)N1` (centres unmarked) [Compound C80386, 3-[1-oxo-6-(quinoxalin-2-ylamino)isoindolin-2-yl]piperidine-2,6-dione], the figure is 7.17; as for `Cn1ccnc(Nc2ccc3c(c2)C(=O)N(C2CCC(=O)NC2=O)C3)c1=O` (centres unmarked) [Compound C80387, 3-[6-[(4-methyl-3-oxo-pyrazin-2-yl)amino]-1-oxo-isoindolin-2-yl]piperidine-2,6-dione], 7.27. The result for `N#Cc1ccc(Nc2ccc3c(c2)C(=O)N(C2CCC(=O)NC2=O)C3)nn1` (centres unmarked) [Compound C80389, 6-[[2-(2,6-dioxo-3-piperidyl)-3-oxo-isoindolin-5-yl]amino]pyridazine-3-carbonitrile] reads 6.19; that for `Cc1cc2[nH]cnc(Nc3ccc4c(c3)C(=O)N(C3CCC(=O)NC3=O)C4)c-2n1` (centres unmarked) [Compound C80390, 3-[6-[(6-methylpyrrolo[3,2-d]pyrimidin-4-yl)amino]-1-oxo-isoindolin-2-yl]piperidine-2,6-dione], 6.14.

`O=C1CCC(N2Cc3ccc(NC(=O)c4ccc5ccccc5n4)cc3C2=O)C(=O)N1` (centres unmarked) [Compound C80392, N-[2-(2,6-dioxo-3-piperidyl)-3-oxo-isoindolin-5-yl]quinoline-2-carboxamide]: the pIC50 is 10.69. As for `O=C1CCC(N2Cc3ccc(NC(=O)c4ccc5cnccc5n4)cc3C2=O)C(=O)N1` (centres unmarked) [Compound C80393, N-[2-(2,6-dioxo-3-piperidyl)-3-oxo-isoindolin-5-yl]-1,6-naphthyridine-2-carboxamide], the figure is 8.15; as for `O=C1CCC(N2Cc3ccc(NC(=O)C4=C5C=CN=C5N=CC4)cc3C2=O)C(=O)N1` (centres unmarked) [Compound C80395, N-[2-(2,6-dioxo-3-piperidyl)-3-oxo-isoindolin-5-yl]-5H-pyrrolo[2,3-6]pyridine-4-carboxamide], 6.06. The result for `NC(=O)CNc1ccc2c(c1)C(=O)N(C1CCC(=O)NC1=O)C2` (centres unmarked) [Compound C84961, 2-[[2-(2,6-dioxo-3-piperidyl)-3-oxo-isoindolin-5-yl]amino]acetamide] reads 5.40; that for `O=C1CCC(N2Cc3ccc(NCC(=O)NC4CC4)cc3C2=O)C(=O)N1` (centres unmarked) [Compound C84963, N-cyclopropyl-2-[[2-(2,6-dioxo-3-piperidyl)-3-oxo-isoindolin-5-yl]amino]acetamide], 5.92; that for `CN(C)C(=O)CNc1ccc2c(c1)C(=O)N(C1CCC(=O)NC1=O)C2` (centres unmarked) [Compound C84964, 2-[[2-(2,6-dioxo-3-piperidyl)-3-oxo-isoindolin-5-yl]amino]-N,N-dimethyl-acetamide], 6.58.

Consider `O=C1CCC(N2Cc3ccc(NCC(=O)Nc4ccccc4)cc3C2=O)C(=O)N1` (centres unmarked) [Compound C84965, 2-[[2-(2,6-dioxo-3-piperidyl)-3-oxo-isoindolin-5-yl]amino]-N-phenyl-acetamide], for which the pIC50 is 6.70. `O=C(CNc1ccc2c(c1)C(=O)N(C1CCC(=O)NC1=O)C2)NCc1ccccc1` (centres unmarked) [Compound C84966, N-benzyl-2-[[2-(2,6-dioxo-3-piperidyl)-3-oxo-isoindolin-5-yl]amino]acetamide]: the pIC50 was 6.22. As for `CC(=O)NCC(=O)Nc1ccc2c(c1)C(=O)N(C1CCC(=O)NC1=O)C2` (centres unmarked) [Compound C84967, 2-acetamido-N-[2-(2,6-dioxo-3-piperidyl)-3-oxo-isoindolin-5-yl]acetamide], the figure is 5.50; as for `O=C1CCC(N2Cc3ccc(N4CCNC4=O)cc3C2=O)C(=O)N1` (centres unmarked) [Compound C84971, 3-[1-oxo-6-(2-oxoimidazolidin-1-yl)isoindolin-2-yl]piperidine-2,6-dione], 5.88; as for `O=C1CCC(N2Cc3ccc(NCC(=O)N4CCc5ccccc5C4)cc3C2=O)C(=O)N1` (centres unmarked) [Compound C95329], 4.99. Regarding `O=C1CCC(N2Cc3ccc(NCC(=O)N4Cc5ccccc5C4)cc3C2=O)C(=O)N1` (centres unmarked) [Compound C95330, 3-[6-[(2-isoindolin-2-yl-2-oxo-ethyl)amino]-1-oxo-isoindolin-2-yl]piperidine-2,6-dione], the pIC50 was 7.52.

`CN(Cc1cnn(C)c1)C(=O)CNc1ccc2c(c1)C(=O)N(C1CCC(=O)NC1=O)C2` (centres unmarked) [Compound C95333, 2-[[2-(2,6-dioxo-3-piperidyl)-3-oxo-isoindolin-5-yl]amino]-N-methyl-N-[(1-methylpyrazol-4-yl)methyl]acetamide]: the pIC50 is 6.23.

`CC1Cc2ccccc2N1C(=O)CNc1ccc2c(c1)C(=O)N(C1CCC(=O)NC1=O)C2` (centres unmarked) [Compound C95336, 3-[6-[[2-(2-methylindolin-1-yl)-2-oxo-ethyl]amino]-1-oxo-isoindolin-2-yl]piperidine-2,6-dione]: the pIC50 is 4.92. As for `CN(CC1CC1)C(=O)CNc1ccc2c(c1)C(=O)N(C1CCC(=O)NC1=O)C2` (centres unmarked) [Compound C95338, N-(cyclopropylmethyl)-2-[[2-(2,6-dioxo-3-piperidyl)-3-oxo-isoindolin-5-yl]amino]-N-methyl-acetamide], the figure is 7.49. The result for `C=CCC1c2ccccc2C(=O)N1C1CCC(=O)NC1=O` (centres unmarked) [Compound C96413, 3-(1-allyl-3-oxo-isoindolin-2-yl)piperidine-2,6-dione] reads 4.98.
